For series [1], the system named is P450 1A2. Conditions: cited from earlier work.
The nature of series [2]: Clinical interaction, theophylline with tacrine. The class given is in vivo, human. Conditions: single 158-mg theophylline with repeated 20-mg tacrine. From the text: M. E. Campbell, D. M. Grant, T. Inaba, and W. Kalow, "Biotransformation of Caffeine, Paraxanthine, Theophylline, and Theobromine by polycyclic Aromatic Hydrocarbon-Inducible Cytochrome(s) P-450 in Human Liver Microsomes", DRUG METAB. DISPOS. Vol. 15, pp. 237-249 (1987). Therefore, a potential explanation for the theophylline-tacrine clinical interaction is competition for the same P450 1A2 enzymes.

For series [3], the system named is P450 2D6. Conditions: cited from earlier work.

Turning to `Cn1c(=O)c2[nH]cnc2n(C)c1=O` [Theophylline], the “major route of clearance” value in series [1] is listed as “metabolism by P450 1A2”. Moreover, the “increase in theophylline elimination half-life” value in series [2] is listed as “two-fold”. As for `C=C[C@H]1C[N@@]2CC[C@H]1C[C@@H]2[C@@H](O)c1ccnc2ccc(OC)cc12` [Quinidine], the “P450 2D6 inhibition” value in series [3] is reported as “inhibitor of P450 2D6”.

The values are drawn from patent US5422350A, “Nitrogen substituted acridine and cytochrome P450 inhibitors and methods of use” (priority 1992, dated 1995).
